Laboratory results reported in PubChem BioAssay AID2060615 (Molecular Pharmacology Branch, DTP, NCI, 2025).
Several values for one entry are separate records, joined by “and”; a condition that tells them apart may be missing. Equal values may be shown once.

Tested on: 496974-208-R-J2-PDC complex spheroids, growth % test/control
Assay: Anticancer human tumor 496974-208-R-J2-PDC patient-derived pancreatic carcinoma cell line growth inhibition [CLK]
Settings: for viability, T/C: stronger effect = lower value
How it was run: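 Patient-derived tumor cells grown as complex spheroids with HUVEC endothelial cells and mesenchymal stem cells, treated with drug combinations. Concentrations descend in half-log steps from near clinical Cmax, or from 10 microM if Cmax unknown.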

[1] = curve of first compound, second compound 0.0316 µM
[2] = curve of first compound, second compound 0.1 µM
[3] = curve of first compound, second compound 0.316 µM
[4] = curve of first compound, second compound 1 µM
[5] = curve of first compound, second compound 3.16 µM
[6] = curve of first compound, second compound 10 µM
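Also: spheroids exposed to the drugs for 7 days before readout.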
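For viability, T/C in this document: 100% = DMSO vehicle control wells.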

NC(=O)C(=Cn1cnc(-c2cc(C(F)(F)F)cc(C(F)(F)F)c2)n1)c1cncnc1 + CNC(=O)c1ccc(Nc2nc(OC3CCCC3)c3c(-c4ccc5nc(C)oc5c4)c[nH]c3n2)c(OC)c1
IC50 [1]: 0.158 µM | IC50 [2]: 0.0816 µM | IC50 [3]: < 0.00949 µM | IC50 [4]: < 0.00949 µM | IC50 [5]: < 0.00949 µM | IC50 [6]: < 0.00949 µM | viability, T/C (second compound 0.0316 µM, first compound 0.00949 µM): 83.3% | viability, T/C (second compound 0.0316 µM, first compound 0.03 µM): 77.3% | viability, T/C (second compound 0.0316 µM, first compound 0.0949 µM): 65.1% | viability, T/C (second compound 0.0316 µM, first compound 0.3 µM): 31.4% | viability, T/C (second compound 0.0316 µM, first compound 0.949 µM): 20.5% | viability, T/C (second compound 0.0316 µM, first compound 3 µM): 14.1% | viability, T/C (second compound 0.1 µM, first compound 0.00949 µM): 68.5% | viability, T/C (second compound 0.1 µM, first compound 0.03 µM): 56.3% | viability, T/C (second compound 0.1 µM, first compound 0.0949 µM): 52% | viability, T/C (second compound 0.1 µM, first compound 0.3 µM): 27.9% | viability, T/C (second compound 0.1 µM, first compound 0.949 µM): 20.9% | viability, T/C (second compound 0.1 µM, first compound 3 µM): 16.8% | viability, T/C (second compound 0.316 µM, first compound 0.00949 µM): 47.2% | viability, T/C (second compound 0.316 µM, first compound 0.03 µM): 48.6% | viability, T/C (second compound 0.316 µM, first compound 0.0949 µM): 43.9% | viability, T/C (second compound 0.316 µM, first compound 0.3 µM): 21.4% | viability, T/C (second compound 0.316 µM, first compound 0.949 µM): 18.8% | viability, T/C (second compound 0.316 µM, first compound 3 µM): 12.4% | viability, T/C (second compound 1 µM, first compound 0.00949 µM): 46.6% | viability, T/C (second compound 1 µM, first compound 0.03 µM): 40.6% | viability, T/C (second compound 1 µM, first compound 0.0949 µM): 29.8% | viability, T/C (second compound 1 µM, first compound 0.3 µM): 16.1% | viability, T/C (second compound 1 µM, first compound 0.949 µM): 14.3% | viability, T/C (second compound 1 µM, first compound 3 µM): 9.67% | viability, T/C (second compound 3.16 µM, first compound 0.00949 µM): 44.9% | viability, T/C (second compound 3.16 µM, first compound 0.03 µM): 28.7% | viability, T/C (second compound 3.16 µM, first compound 0.0949 µM): 20.2% | viability, T/C (second compound 3.16 µM, first compound 0.3 µM): 12.1% | viability, T/C (second compound 3.16 µM, first compound 0.949 µM): 10.8% | viability, T/C (second compound 3.16 µM, first compound 3 µM): 5.23% | viability, T/C (second compound 10 µM, first compound 0.00949 µM): 39.4% | viability, T/C (second compound 10 µM, first compound 0.03 µM): 28.8% | viability, T/C (second compound 10 µM, first compound 0.0949 µM): 19.1% | viability, T/C (second compound 10 µM, first compound 0.3 µM): 9.35% | viability, T/C (second compound 10 µM, first compound 0.949 µM): 8.25% | viability, T/C (second compound 10 µM, first compound 3 µM): 3.76%

C=C(F)C(=O)N1CCN(c2nc(OCC3CCCN3C)nc3c2CCN(c2cccc4cccc(Cl)c24)C3)CC1CC#N (stereo unspecified)
viability, T/C (compound 0.0316 µM): 111% and 105% | viability, T/C (compound 0.1 µM): 108% and 95.4% | viability, T/C (compound 0.316 µM): 97% and 89.5% | viability, T/C (compound 1 µM): 95.8% and 87.1% | viability, T/C (compound 3.16 µM): 93.5% and 98.2% | viability, T/C (compound 10 µM): 2.37% and 3.13% | IC50 (curve of compound): 5.48 µM and 5.56 µM

Nc1ccccc1NC(=O)c1ccc(CNC(=O)OCc2cccnc2)cc1 + CNC(=O)c1ccc(Nc2nc(OC3CCCC3)c3c(-c4ccc5nc(C)oc5c4)c[nH]c3n2)c(OC)c1
IC50 [1]: 4.52 µM | IC50 [2]: 4.53 µM | IC50 [3]: 4.36 µM | IC50 [4]: 4.23 µM | IC50 [5]: 3.34 µM | IC50 [6]: 3.34 µM | viability, T/C (second compound 0.0316 µM, first compound 0.0316 µM): 92.7% | viability, T/C (second compound 0.0316 µM, first compound 0.1 µM): 92.8% | viability, T/C (second compound 0.0316 µM, first compound 0.316 µM): 89.9% | viability, T/C (second compound 0.0316 µM, first compound 1 µM): 78% | viability, T/C (second compound 0.0316 µM, first compound 3.16 µM): 75.3% | viability, T/C (second compound 0.0316 µM, first compound 10 µM): 0.72% | viability, T/C (second compound 0.1 µM, first compound 0.0316 µM): 81.8% | viability, T/C (second compound 0.1 µM, first compound 0.1 µM): 72.5% | viability, T/C (second compound 0.1 µM, first compound 0.316 µM): 66.3% | viability, T/C (second compound 0.1 µM, first compound 1 µM): 61.4% | viability, T/C (second compound 0.1 µM, first compound 3.16 µM): 73.6% | viability, T/C (second compound 0.1 µM, first compound 10 µM): 3.35% | viability, T/C (second compound 0.316 µM, first compound 0.0316 µM): 78.6% | viability, T/C (second compound 0.316 µM, first compound 0.1 µM): 72.9% | viability, T/C (second compound 0.316 µM, first compound 0.316 µM): 74.2% | viability, T/C (second compound 0.316 µM, first compound 1 µM): 56.1% | viability, T/C (second compound 0.316 µM, first compound 3.16 µM): 69.2% | viability, T/C (second compound 0.316 µM, first compound 10 µM): 1.48% | viability, T/C (second compound 1 µM, first compound 0.0316 µM): 69.1% | viability, T/C (second compound 1 µM, first compound 0.1 µM): 65.1% | viability, T/C (second compound 1 µM, first compound 0.316 µM): 67.8% | viability, T/C (second compound 1 µM, first compound 1 µM): 58.5% | viability, T/C (second compound 1 µM, first compound 3.16 µM): 68.6% | viability, T/C (second compound 1 µM, first compound 10 µM): 3% | viability, T/C (second compound 3.16 µM, first compound 0.0316 µM): 63.5% | viability, T/C (second compound 3.16 µM, first compound 0.1 µM): 59.2% | viability, T/C (second compound 3.16 µM, first compound 0.316 µM): 55% | viability, T/C (second compound 3.16 µM, first compound 1 µM): 49.7% | viability, T/C (second compound 3.16 µM, first compound 3.16 µM): 53.5% | viability, T/C (second compound 3.16 µM, first compound 10 µM): 4.03% | viability, T/C (second compound 10 µM, first compound 0.0316 µM): 60.2% | viability, T/C (second compound 10 µM, first compound 0.1 µM): 53.4% | viability, T/C (second compound 10 µM, first compound 0.316 µM): 52.1% | viability, T/C (second compound 10 µM, first compound 1 µM): 42.9% | viability, T/C (second compound 10 µM, first compound 3.16 µM): 53.2% | viability, T/C (second compound 10 µM, first compound 10 µM): 4.38%
